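The concentration for 50% growth inhibition is given as GI50. The concentration for full growth arrest is given as TGI.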
Columns and labels:
Assay in all cases: inhibition of tumour cell growth, NCI panel, 384-well format
[1] = tested on: UACC-257 melanoma
[2] = tested on: A549 NSCLC
[3] = tested on: HOP-62 NSCLC
[4] = tested on: SK-MEL-5 melanoma
[5] = tested on: UACC-62 melanoma
[6] = tested on: DU-145 prostate
[7] = tested on: HCC-2998 colon
[8] = tested on: HS 578T breast
[9] = tested on: SN12C renal
[10] = tested on: HT29 colon
[11] = tested on: NCI-H322M lung
[12] = tested on: M14 melanoma
[13] = tested on: HOP-92 NSCLC
[14] = tested on: MCF7 breast
[15] = tested on: HCT-15 colon
[16] = tested on: A498 renal
[17] = tested on: CCRF-CEM leukemia
[18] = tested on: SK-OV-3 ovarian
[19] = tested on: OVCAR-5 ovarian
[20] = tested on: KM12 colon
[21] = tested on: SF-539 CNS
[22] = tested on: RPMI-8226 leukemia
[23] = tested on: SW-620 colon
[24] = tested on: TK-10 renal
[25] = tested on: SK-MEL-28 melanoma
[26] = tested on: ACHN renal
[27] = tested on: SNB-19 CNS
[28] = tested on: SR leukemia
[29] = tested on: SF-268 CNS
[30] = tested on: MDA-MB-468 breast
[31] = tested on: NCI-H23 lung
[32] = tested on: T-47D breast
[33] = tested on: NCI-H522 lung
[34] = tested on: MALME-3M melanoma
[35] = tested on: NCI-H226 lung
[36] = tested on: IGROV1 ovarian
[37] = tested on: MOLT-4 leukemia
[38] = tested on: SK-MEL-2 melanoma
[39] = tested on: OVCAR-3 ovarian
[40] = tested on: RXF 393 renal
[41] = tested on: OVCAR-4 ovarian
[42] = tested on: MDA-MB-435 melanoma
[43] = tested on: EKVX NSCLC
[44] = tested on: NCI-H460 NSCLC
[45] = tested on: CAKI-1 renal
[46] = tested on: PC-3 prostate
[47] = tested on: HL-60(TB) leukemia
[48] = tested on: COLO 205 colon
[49] = tested on: 786-0 renal
[50] = tested on: MDA-MB-231 breast
[51] = tested on: SF-295 CNS
[52] = tested on: BT-549 breast
[53] = tested on: U251 glioblastoma
[54] = tested on: NCI/ADR-RES ovarian
[55] = tested on: OVCAR-8 ovarian

O=C(O)C(=O)CBr
GI50 [1]: > 100 µM
TGI [1]: > 100 µM
GI50 [2]: > 100 µM
TGI [2]: > 100 µM
GI50 [3]: 34.7 µM
TGI [3]: > 100 µM
GI50 [4]: > 100 µM
TGI [4]: > 100 µM
GI50 [5]: > 100 µM
TGI [5]: > 100 µM
GI50 [6]: > 100 µM
TGI [6]: > 100 µM
GI50 [7]: > 100 µM
TGI [7]: > 100 µM
GI50 [8]: > 100 µM
TGI [8]: > 100 µM
GI50 [9]: > 100 µM
TGI [9]: > 100 µM
GI50 [10]: > 100 µM
TGI [10]: > 100 µM
GI50 [11]: > 100 µM
TGI [11]: > 100 µM
GI50 [12]: > 100 µM
TGI [12]: > 100 µM
GI50 [13]: > 100 µM
TGI [13]: > 100 µM
GI50 [14]: > 100 µM
TGI [14]: > 100 µM
GI50 [15]: > 100 µM
TGI [15]: > 100 µM
GI50 [16]: > 100 µM
TGI [16]: > 100 µM
GI50 [17]: 43.2 µM
TGI [17]: > 100 µM
GI50 [18]: > 100 µM
TGI [18]: > 100 µM
GI50 [19]: > 100 µM
TGI [19]: > 100 µM
GI50 [20]: > 100 µM
TGI [20]: > 100 µM
GI50 [21]: > 100 µM
TGI [21]: > 100 µM
GI50 [22]: > 100 µM
TGI [22]: > 100 µM
GI50 [23]: > 100 µM
TGI [23]: > 100 µM
GI50 [24]: > 100 µM
TGI [24]: > 100 µM
GI50 [25]: > 100 µM
TGI [25]: > 100 µM
GI50 [26]: > 100 µM
TGI [26]: > 100 µM
GI50 [27]: > 100 µM
TGI [27]: > 100 µM
GI50 [28]: > 100 µM
TGI [28]: > 100 µM
GI50 [29]: > 100 µM
TGI [29]: > 100 µM
GI50 [30]: 24.7 µM
TGI [30]: 56.8 µM
GI50 [31]: 55.7 µM
TGI [31]: > 100 µM
GI50 [32]: > 100 µM
TGI [32]: > 100 µM
GI50 [33]: 23.5 µM
TGI [33]: 47.8 µM
GI50 [34]: > 100 µM
TGI [34]: > 100 µM
GI50 [35]: > 100 µM
TGI [35]: > 100 µM
GI50 [36]: > 100 µM
TGI [36]: > 100 µM
GI50 [37]: > 100 µM
TGI [37]: > 100 µM
GI50 [38]: > 100 µM
TGI [38]: > 100 µM
GI50 [39]: > 100 µM
TGI [39]: > 100 µM
GI50 [40]: 22.5 µM
TGI [40]: 57.1 µM
GI50 [41]: 32.3 µM
TGI [41]: > 100 µM
GI50 [42]: > 100 µM
TGI [42]: > 100 µM
GI50 [43]: > 100 µM
TGI [43]: > 100 µM
GI50 [44]: > 100 µM
TGI [44]: > 100 µM
GI50 [45]: > 100 µM
TGI [45]: > 100 µM
GI50 [46]: > 100 µM
TGI [46]: > 100 µM
GI50 [47]: 23.9 µM
TGI [47]: 45.3 µM
GI50 [48]: > 100 µM
TGI [48]: > 100 µM
GI50 [49]: > 100 µM
TGI [49]: > 100 µM
GI50 [50]: > 100 µM
TGI [50]: > 100 µM
GI50 [51]: > 100 µM
TGI [51]: > 100 µM
GI50 [52]: > 100 µM
TGI [52]: > 100 µM
GI50 [53]: > 100 µM
TGI [53]: > 100 µM
GI50 [54]: > 100 µM
TGI [54]: > 100 µM
GI50 [55]: > 100 µM
TGI [55]: > 100 µM

Reference: PubChem BioAssay (NCI)
